Assay results reported in ChEMBL document CHEMBL1151757, “Synthesis, radiosynthesis, and biological evaluation of fluorine-18-labeled 2beta-carbo(fluoroalkoxy)-3beta-(3'-((Z)-2-haloethenyl)phenyl)nortropanes: candidate radioligands for in vivo imaging of the serotonin transporter with positron emission tomography” (J Med Chem, 2008).

Legend:
[1] = Ratio of drug uptake in pons to cerebellum in anesthetized cynomolgus monkey after 95 mins postinjection; assay type: ADME, organism-based, Macaca fascicularis; conditions: in vivo
[2] = Ratio of drug uptake in pons to cerebellum in anesthetized cynomolgus monkey after 125 mins postinjection; assay type: ADME, organism-based, Macaca fascicularis; conditions: in vivo
[3] = Ratio of drug uptake in pons to cerebellum in anesthetized cynomolgus monkey after 225 mins postinjection; assay type: ADME, organism-based, Macaca fascicularis; conditions: in vivo, 3.75 h
[4] = Ratio of drug uptake in medulla to cerebellum in anesthetized cynomolgus monkey after 9.5 mins postinjection; assay type: ADME, organism-based, Macaca fascicularis; conditions: in vivo
[5] = Ratio of drug uptake in medulla to cerebellum in anesthetized cynomolgus monkey after 12.5 mins postinjection; assay type: ADME, organism-based, Macaca fascicularis; conditions: in vivo
[6] = Ratio of drug uptake in medulla to cerebellum in anesthetized cynomolgus monkey after 35 mins postinjection; assay type: ADME, organism-based, Macaca fascicularis; conditions: in vivo
[7] = Ratio of drug uptake in medulla to cerebellum in anesthetized cynomolgus monkey after 195 mins postinjection; assay type: ADME, organism-based, Macaca fascicularis; conditions: in vivo, 3.25 h
[8] = Drug uptake in anesthetized cynomolgus monkey brain occipital lobe after 6.5 mins postinjection; assay type: ADME, organism-based, Macaca fascicularis; set-up: unit not given here; conditions: in vivo
[9] = Drug uptake in anesthetized cynomolgus monkey brain occipital lobe after 9.5 mins postinjection; assay type: ADME, organism-based, Macaca fascicularis; conditions: in vivo
[10] = Drug uptake in anesthetized cynomolgus monkey brain occipital lobe after 125 mins postinjection; assay type: ADME, organism-based, Macaca fascicularis; conditions: in vivo
[11] = Drug uptake in anesthetized cynomolgus monkey brain frontal lobe after 1.5 mins postinjection; assay type: ADME, organism-based, Macaca fascicularis; conditions: in vivo, 0.025 h
[12] = Drug uptake in anesthetized cynomolgus monkey brain frontal lobe after 115 mins postinjection; assay type: ADME, organism-based, Macaca fascicularis; conditions: in vivo
[13] = Drug uptake in anesthetized cynomolgus monkey brain frontal lobe after 225 mins postinjection; assay type: ADME, organism-based, Macaca fascicularis; conditions: in vivo, 3.75 h
[14] = Ratio of drug uptake in pons to cerebellum in anesthetized cynomolgus monkey after 6.5 mins postinjection; assay type: ADME, organism-based, Macaca fascicularis; conditions: in vivo
[15] = Ratio of drug uptake in occipital lobe to cerebellum in anesthetized cynomolgus monkey after 125 mins postinjection; assay type: ADME, organism-based, Macaca fascicularis; conditions: in vivo
Putamen [16] = experiment: Drug uptake in anesthetized cynomolgus monkey brain putamen after 145 mins postinjection; assay type: ADME, organism-based, Macaca fascicularis; conditions: in vivo
Putamen [17] = experiment: Drug uptake in anesthetized cynomolgus monkey brain putamen after 165 mins postinjection; assay type: ADME, organism-based, Macaca fascicularis; conditions: in vivo, 2.75 h
Putamen [18] = experiment: Drug uptake in anesthetized cynomolgus monkey brain putamen after 215 mins postinjection; assay type: ADME, organism-based, Macaca fascicularis; conditions: in vivo
[19] = Ratio of drug uptake in occipital lobe to cerebellum in anesthetized cynomolgus monkey after 185 mins postinjection; assay type: ADME, organism-based, Macaca fascicularis; conditions: in vivo
[20] = Ratio of drug uptake in occipital lobe to cerebellum in anesthetized cynomolgus monkey after 195 mins postinjection; assay type: ADME, organism-based, Macaca fascicularis; conditions: in vivo, 3.25 h
[21] = Ratio of drug uptake in frontal lobe to cerebellum in anesthetized cynomolgus monkey after 3.5 mins postinjection; assay type: ADME, organism-based, Macaca fascicularis; conditions: in vivo
[22] = Ratio of drug uptake in frontal lobe to cerebellum in anesthetized cynomolgus monkey after 95 mins postinjection; assay type: ADME, organism-based, Macaca fascicularis; conditions: in vivo
Midbrain [23] = experiment: Drug uptake in anesthetized cynomolgus monkey brain midbrain after 175 mins postinjection; assay type: ADME, organism-based, Macaca fascicularis; conditions: in vivo
Midbrain [24] = experiment: Drug uptake in anesthetized cynomolgus monkey brain midbrain after 225 mins postinjection; assay type: ADME, organism-based, Macaca fascicularis; conditions: in vivo, 3.75 h
Pons [25] = experiment: Drug uptake in anesthetized cynomolgus monkey brain pons after 0.5 mins postinjection; assay type: ADME, organism-based, Macaca fascicularis; conditions: in vivo
Pons [26] = experiment: Drug uptake in anesthetized cynomolgus monkey brain pons after 12.5 mins postinjection; assay type: ADME, organism-based, Macaca fascicularis; conditions: in vivo
Pons [27] = experiment: Drug uptake in anesthetized cynomolgus monkey brain pons after 18.5 mins postinjection; assay type: ADME, organism-based, Macaca fascicularis; conditions: in vivo
Pons [28] = experiment: Drug uptake in anesthetized cynomolgus monkey brain pons after 55 mins postinjection; assay type: ADME, organism-based, Macaca fascicularis; conditions: in vivo
Caudate [29] = experiment: Drug uptake in anesthetized cynomolgus monkey brain caudate after 185 mins postinjection; assay type: ADME, organism-based, Macaca fascicularis, Caudate nucleus; conditions: in vivo
[30] = Ratio of drug uptake in caudate to cerebellum in anesthetized cynomolgus monkey after 12.5 mins postinjection; assay type: ADME, organism-based, Macaca fascicularis; conditions: in vivo
[31] = Ratio of drug uptake in caudate to cerebellum in anesthetized cynomolgus monkey after 65 mins postinjection; assay type: ADME, organism-based, Macaca fascicularis; conditions: in vivo
[32] = Ratio of drug uptake in caudate to cerebellum in anesthetized cynomolgus monkey after 135 mins postinjection; assay type: ADME, organism-based, Macaca fascicularis; conditions: in vivo, 2.25 h
Pons [33] = experiment: Drug uptake in anesthetized cynomolgus monkey brain pons after 125 mins postinjection; assay type: ADME, organism-based, Macaca fascicularis; conditions: in vivo
Pons [34] = experiment: Drug uptake in anesthetized cynomolgus monkey brain pons after 145 mins postinjection; assay type: ADME, organism-based, Macaca fascicularis; conditions: in vivo
Pons [35] = experiment: Drug uptake in anesthetized cynomolgus monkey brain pons after 215 mins postinjection; assay type: ADME, organism-based, Macaca fascicularis; conditions: in vivo
Medulla [36] = experiment: Drug uptake in anesthetized cynomolgus monkey brain medulla after 15.5 mins postinjection; assay type: ADME, organism-based, Macaca fascicularis; conditions: in vivo
Medulla [37] = experiment: Drug uptake in anesthetized cynomolgus monkey brain medulla after 18.5 mins postinjection; assay type: ADME, organism-based, Macaca fascicularis; conditions: in vivo
Medulla [38] = experiment: Drug uptake in anesthetized cynomolgus monkey brain medulla after 95 mins postinjection; assay type: ADME, organism-based, Macaca fascicularis; conditions: in vivo
[39] = Ratio of drug uptake in putamen to cerebellum in anesthetized cynomolgus monkey after 0.5 mins postinjection; assay type: ADME, organism-based, Macaca fascicularis; conditions: in vivo
[40] = Ratio of drug uptake in putamen to cerebellum in anesthetized cynomolgus monkey after 6.5 mins postinjection; assay type: ADME, organism-based, Macaca fascicularis; conditions: in vivo
[41] = Ratio of drug uptake in putamen to cerebellum in anesthetized cynomolgus monkey after 9.5 mins postinjection; assay type: ADME, organism-based, Macaca fascicularis; conditions: in vivo
Medulla [42] = experiment: Drug uptake in anesthetized cynomolgus monkey brain medulla after 135 mins postinjection; assay type: ADME, organism-based, Macaca fascicularis; conditions: in vivo, 2.25 h
Medulla [43] = experiment: Drug uptake in anesthetized cynomolgus monkey brain medulla after 145 mins postinjection; assay type: ADME, organism-based, Macaca fascicularis; conditions: in vivo
[44] = Octanol-water partition coefficient, log P at pH 7.4 by shake-flask method; assay type: physicochemical
Medulla [45] = experiment: Drug uptake in anesthetized cynomolgus monkey brain medulla after 215 mins postinjection; assay type: ADME, organism-based, Macaca fascicularis; conditions: in vivo
[46] = Drug uptake in anesthetized cynomolgus monkey brain cerebellum after 0.5 mins postinjection; assay type: ADME, organism-based, Macaca fascicularis; conditions: in vivo
[47] = Drug uptake in anesthetized cynomolgus monkey brain cerebellum after 2.5 mins postinjection; assay type: ADME, organism-based, Macaca fascicularis; conditions: in vivo
[48] = Drug uptake in anesthetized cynomolgus monkey brain cerebellum after 15.5 mins postinjection; assay type: ADME, organism-based, Macaca fascicularis; conditions: in vivo
[49] = Drug uptake in anesthetized cynomolgus monkey brain cerebellum after 115 mins postinjection; assay type: ADME, organism-based, Macaca fascicularis; conditions: in vivo
[50] = Drug uptake in anesthetized cynomolgus monkey brain cerebellum after 215 mins postinjection; assay type: ADME, organism-based, Macaca fascicularis; conditions: in vivo
[51] = Ratio of drug uptake in putamen to cerebellum in anesthetized cynomolgus monkey after 215 mins postinjection; assay type: ADME, organism-based, Macaca fascicularis; conditions: in vivo
[52] = Ratio of drug uptake in thalamus to cerebellum in anesthetized cynomolgus monkey after 95 mins postinjection; assay type: ADME, organism-based, Macaca fascicularis; conditions: in vivo
Caudate [53] = experiment: Drug uptake in anesthetized cynomolgus monkey brain caudate after 75 mins postinjection; assay type: ADME, organism-based, Macaca fascicularis, Caudate nucleus; conditions: in vivo, 1.25 h
Caudate [54] = experiment: Drug uptake in anesthetized cynomolgus monkey brain caudate after 105 mins postinjection; assay type: ADME, organism-based, Macaca fascicularis, Caudate nucleus; conditions: in vivo, 1.75 h
Caudate [55] = experiment: Drug uptake in anesthetized cynomolgus monkey brain caudate after 215 mins postinjection; assay type: ADME, organism-based, Macaca fascicularis, Caudate nucleus; conditions: in vivo
Thalamus = experiment: Drug uptake in anesthetized cynomolgus monkey brain thalamus after 22.5 mins postinjection; assay type: ADME, organism-based, Macaca fascicularis; set-up: unit not given here; conditions: in vivo, 0.375 h
Putamen [56] = experiment: Drug uptake in anesthetized cynomolgus monkey brain putamen after 18.5 mins postinjection; assay type: ADME, organism-based, Macaca fascicularis; set-up: unit not given here; conditions: in vivo
Putamen [57] = experiment: Drug uptake in anesthetized cynomolgus monkey brain putamen after 55 mins postinjection; assay type: ADME, organism-based, Macaca fascicularis; set-up: unit not given here; conditions: in vivo
Midbrain [58] = experiment: Drug uptake in anesthetized cynomolgus monkey brain midbrain after 4.5 mins postinjection; assay type: ADME, organism-based, Macaca fascicularis; set-up: unit not given here; conditions: in vivo, 0.075 h
Midbrain [59] = experiment: Drug uptake in anesthetized cynomolgus monkey brain midbrain after 18.5 mins postinjection; assay type: ADME, organism-based, Macaca fascicularis; set-up: unit not given here; conditions: in vivo
Midbrain [60] = experiment: Drug uptake in anesthetized cynomolgus monkey brain midbrain after 75 mins postinjection; assay type: ADME, organism-based, Macaca fascicularis; set-up: unit not given here; conditions: in vivo, 1.25 h
[61] = Ratio of drug uptake in midbrain to cerebellum in anesthetized cynomolgus monkey after 9.5 mins postinjection; assay type: ADME, organism-based, Macaca fascicularis; conditions: in vivo
[62] = Ratio of drug uptake in midbrain to cerebellum in anesthetized cynomolgus monkey after 18.5 mins postinjection; assay type: ADME, organism-based, Macaca fascicularis; conditions: in vivo
[63] = Ratio of drug uptake in midbrain to cerebellum in anesthetized cynomolgus monkey after 27.5 mins postinjection; assay type: ADME, organism-based, Macaca fascicularis; conditions: in vivo
[64] = Ratio of drug uptake in midbrain to cerebellum in anesthetized cynomolgus monkey after 135 mins postinjection; assay type: ADME, organism-based, Macaca fascicularis; conditions: in vivo, 2.25 h

## O=C(OCCC[18F])C1C2CCC(CC1c1cccc(/C=C\I)c1)N2 (stereo not given)
[1]
  Ratio: 1.3
[2]
  Ratio: 1.4
[3]
  Ratio: 1.7
[4]
  Ratio: 0.9
[5]
  Ratio: 1
[6]
  Ratio: 1.1
[7]
  Ratio: 1.7
[8]
  Drug uptake: 2.83
[9]
  Drug uptake: 3.14
[10]
  Drug uptake: 2.96
[11]
  Drug uptake: 0.16
[12]
  Drug uptake: 2.56
[13]
  Drug uptake: 1.82
[14]
  Ratio: 0.7
[15]
  Ratio: 1.1
Putamen [16]
  Drug uptake: 3.91
Putamen [17]
  Drug uptake: 3.74
Putamen [18]
  Drug uptake: 3.13
[19]
  Ratio: 1.1
[20]
  Ratio: 1.1
[21]
  Ratio: 0.4
[22]
  Ratio: 0.8
Midbrain [23]
  Drug uptake: 4.1
Midbrain [24]
  Drug uptake: 3.76
Pons [25]
  Drug uptake: 0.01
Pons [26]
  Drug uptake: 3.49
Pons [27]
  Drug uptake: 4.2
Pons [28]
  Drug uptake: 4.4
Caudate [29]
  Drug uptake: 2.82
[30]
  Ratio: 0.7
[31]
  Ratio: 1
[32]
  Ratio: 1.3
Pons [33]
  Drug uptake: 3.82
Pons [34]
  Drug uptake: 3.74
Pons [35]
  Drug uptake: 3.11
Medulla [36]
  Drug uptake: 4.36
Medulla [37]
  Drug uptake: 4.6
Medulla [38]
  Drug uptake: 4.93
[39]
  Ratio: 1.5
[40]
  Ratio: 0.8
[41]
  Ratio: 0.9
Medulla [42]
  Drug uptake: 4.5
Medulla [43]
  Drug uptake: 4.24
[44]
  logD: 1.64
Medulla [45]
  Drug uptake: 3.66
[46]
  Drug uptake: 0.01
[47]
  Drug uptake: 1.12
[48]
  Drug uptake: 4.75
[49]
  Drug uptake: 3.1
[50]
  Drug uptake: 2.06
[51]
  Ratio: 1.5
[52]
  Ratio: 1.3
Caudate [53]
  Drug uptake: 4.05
Caudate [54]
  Drug uptake: 3.7
Caudate [55]
  Drug uptake: 2.54
Thalamus
  Drug uptake: 4.46
Putamen [56]
  Drug uptake: 4.42
Putamen [57]
  Drug uptake: 5.03
Midbrain [58]
  Drug uptake: 2.42
Midbrain [59]
  Drug uptake: 4.65
Midbrain [60]
  Drug uptake: 5
[61]
  Ratio: 0.9
[62]
  Ratio: 1
[63]
  Ratio: 1
[64]
  Ratio: 1.7
